Data: the supplement of paper PMC10307832

Columns and labels:
Test in all cases: relative viability (nuclei count vs DMSO), 5 days (fraction); higher = more cells survive
[1] = tested on: NCI-H1734
Summary of the method: (§1)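 After 5 days of treatment, lung cancer cells in 1536-well plates were fixed and stained in a single step (final 0.05% Triton X-100, 1% formaldehyde, 1 ug/ml Hoechst) and their nuclei counted on 4× images. Treatment had been applied by pin tool the day after seeding as one drug alone or as a fixed anchor-drug dose with five library-drug doses (not always all listed) in √10 steps. Relative viability is the nuclei count of treated wells divided by that of vehicle wells, and values are medians of duplicate plates.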

[2] = tested on: NCI-H838
Summary of the method: as §1

[3] = tested on: COR-L23
Summary of the method: as §1

[4] = tested on: NCI-H1650
Summary of the method: as §1

[5] = tested on: NCI-H1975
Summary of the method: as §1

[6] = tested on: HCC-366
Summary of the method: as §1

[7] = tested on: NCI-H2023
Summary of the method: as §1

[8] = tested on: LOU-NH91
Summary of the method: as §1

[9] = tested on: NCI-H1651
Summary of the method: as §1

[10] = tested on: NCI-H2085
Summary of the method: as §1

[11] = tested on: LU99A
Summary of the method: as §1

[12] = tested on: NCI-H1355
Summary of the method: as §1

[13] = tested on: BEN
Summary of the method: as §1

[14] = tested on: NCI-H1437
Summary of the method: as §1

[15] = tested on: CAL-12T
Summary of the method: as §1

[16] = tested on: NCI-H2342
Summary of the method: as §1

[17] = tested on: NCI-H460
Summary of the method: as §1

[18] = tested on: NCI-H1793
Summary of the method: as §1

[19] = tested on: SK-LU-1
Summary of the method: as §1

[20] = tested on: NCI-H441
Summary of the method: as §1

[21] = tested on: NCI-H358
Summary of the method: as §1

O=c1cc(-c2cccc3c2Sc2ccccc2S3)oc(N2CCOCC2)c1 + CC(=O)Nc1cccc(-n2c(=O)n(C3CC3)c(=O)c3c(Nc4ccc(I)cc4F)n(C)c(=O)c(C)c32)c1 [Trametinib] (partner 0.02 µM)
relative viability ([1]; first compound 0.08 µM): 0.656 | relative viability ([1]; first compound 0.253 µM): 0.72 | relative viability ([1]; first compound 0.8 µM): 0.69 | relative viability ([1]; first compound 8 µM): 0.697 | relative viability ([2]; first compound 0.08 µM): 0.462 | relative viability ([2]; first compound 0.253 µM): 0.673 | relative viability ([2]; first compound 0.8 µM): 0.49 | relative viability ([2]; first compound 2.53 µM): 0.502 | relative viability ([2]; first compound 8 µM): 0.47 | relative viability ([3]; first compound 0.08 µM): 0.593 | relative viability ([3]; first compound 0.253 µM): 0.689 | relative viability ([3]; first compound 0.8 µM): 0.51 | relative viability ([3]; first compound 2.53 µM): 0.592 | relative viability ([3]; first compound 8 µM): 0.689 | relative viability ([4]; first compound 0.08 µM): 0.516 | relative viability ([4]; first compound 0.253 µM): 0.648 | relative viability ([4]; first compound 0.8 µM): 0.503 | relative viability ([4]; first compound 2.53 µM): 0.497 | relative viability ([4]; first compound 8 µM): 0.622 | relative viability ([5]; first compound 0.08 µM): 0.323 | relative viability ([5]; first compound 0.253 µM): 0.295 | relative viability ([5]; first compound 0.8 µM): 0.327 | relative viability ([5]; first compound 2.53 µM): 0.347 | relative viability ([5]; first compound 8 µM): 0.39 | relative viability ([6]; first compound 0.08 µM): 0.31 | relative viability ([6]; first compound 0.253 µM): 0.474 | relative viability ([6]; first compound 0.8 µM): 0.339 | relative viability ([6]; first compound 2.53 µM): 0.33 | relative viability ([6]; first compound 8 µM): 0.284 | relative viability ([7]; first compound 0.08 µM): 0.564 | relative viability ([7]; first compound 0.253 µM): 0.647 | relative viability ([7]; first compound 0.8 µM): 0.6 | relative viability ([7]; first compound 2.53 µM): 0.534 | relative viability ([7]; first compound 8 µM): 0.426 | relative viability ([8]; first compound 0.08 µM): 0.772 | relative viability ([8]; first compound 0.253 µM): 0.884 | relative viability ([8]; first compound 0.8 µM): 0.732 | relative viability ([8]; first compound 2.53 µM): 0.719 | relative viability ([8]; first compound 8 µM): 0.777 | relative viability ([9]; first compound 0.08 µM): 0.906 | relative viability ([9]; first compound 0.253 µM): 0.709 | relative viability ([9]; first compound 0.8 µM): 0.843 | relative viability ([9]; first compound 2.53 µM): 0.803 | relative viability ([9]; first compound 8 µM): 0.832 | relative viability ([10]; first compound 0.08 µM): 0.526 | relative viability ([10]; first compound 0.253 µM): 0.573 | relative viability ([10]; first compound 0.8 µM): 0.441 | relative viability ([10]; first compound 2.53 µM): 0.401 | relative viability ([10]; first compound 8 µM): 0.446 | relative viability ([11]; first compound 0.08 µM): 0.531 | relative viability ([11]; first compound 0.253 µM): 0.624 | relative viability ([11]; first compound 0.8 µM): 0.553 | relative viability ([11]; first compound 2.53 µM): 0.538 | relative viability ([11]; first compound 8 µM): 0.52 | relative viability ([12]; first compound 0.08 µM): 0.524 | relative viability ([12]; first compound 0.253 µM): 0.468 | relative viability ([12]; first compound 0.8 µM): 0.348 | relative viability ([12]; first compound 2.53 µM): 0.409 | relative viability ([12]; first compound 8 µM): 0.352 | relative viability ([13]; first compound 0.08 µM): 0.945 | relative viability ([13]; first compound 0.253 µM): 0.982 | relative viability ([13]; first compound 0.8 µM): 1.1 | relative viability ([13]; first compound 2.53 µM): 0.975 | relative viability ([13]; first compound 8 µM): 1.07 | relative viability ([14]; first compound 0.08 µM): 0.47 | relative viability ([14]; first compound 0.253 µM): 0.64 | relative viability ([14]; first compound 0.8 µM): 0.483 | relative viability ([14]; first compound 2.53 µM): 0.395 | relative viability ([14]; first compound 8 µM): 0.412 | relative viability ([15]; first compound 0.08 µM): 0.297 | relative viability ([15]; first compound 0.253 µM): 0.333 | relative viability ([15]; first compound 0.8 µM): 0.305 | relative viability ([15]; first compound 2.53 µM): 0.263 | relative viability ([15]; first compound 8 µM): 0.246 | relative viability ([16]; first compound 0.08 µM): 0.744 | relative viability ([16]; first compound 0.253 µM): 0.897 | relative viability ([16]; first compound 0.8 µM): 0.736 | relative viability ([16]; first compound 2.53 µM): 0.716 | relative viability ([16]; first compound 8 µM): 0.935 | relative viability ([17]; first compound 0.08 µM): 0.147 | relative viability ([17]; first compound 0.253 µM): 0.163 | relative viability ([17]; first compound 0.8 µM): 0.113 | relative viability ([17]; first compound 2.53 µM): 0.091 | relative viability ([17]; first compound 8 µM): 0.1 | relative viability ([18]; first compound 0.08 µM): 0.262 | relative viability ([18]; first compound 0.253 µM): 0.458 | relative viability ([18]; first compound 0.8 µM): 0.448 | relative viability ([18]; first compound 2.53 µM): 0.376 | relative viability ([18]; first compound 8 µM): 0.346 | relative viability ([19]; first compound 0.08 µM): 0.422 | relative viability ([19]; first compound 0.253 µM): 0.512 | relative viability ([19]; first compound 0.8 µM): 0.582 | relative viability ([19]; first compound 2.53 µM): 0.414 | relative viability ([19]; first compound 8 µM): 0.415 | relative viability ([20]; first compound 0.08 µM): 0.34 | relative viability ([20]; first compound 0.253 µM): 0.527 | relative viability ([20]; first compound 0.8 µM): 0.55 | relative viability ([20]; first compound 2.53 µM): 0.465 | relative viability ([20]; first compound 8 µM): 0.424 | relative viability ([21]; first compound 0.08 µM): 0.123 | relative viability ([21]; first compound 0.253 µM): 0.134 | relative viability ([21]; first compound 0.8 µM): 0.123 | relative viability ([21]; first compound 2.53 µM): 0.111 | relative viability ([21]; first compound 8 µM): 0.152
